Experimental data: patent publication US5281603A, “Angiotensin II receptor blocking 2,3,6 substituted quinazolinones” (American Cyanamid Company, priority 1993, dated 1994)

Target: T1, Angiotensin II Receptor (Bos taurus, UniProt P25104)
T1 construct: The brownish tissue forming the adrenal cortex is scraped off and finely minced with scissors before homogenization; from tissue; host or cells: beef adrenal cortex, microsomal membranes (100,000×g pellet)
T1 sequence (P25104 1-359): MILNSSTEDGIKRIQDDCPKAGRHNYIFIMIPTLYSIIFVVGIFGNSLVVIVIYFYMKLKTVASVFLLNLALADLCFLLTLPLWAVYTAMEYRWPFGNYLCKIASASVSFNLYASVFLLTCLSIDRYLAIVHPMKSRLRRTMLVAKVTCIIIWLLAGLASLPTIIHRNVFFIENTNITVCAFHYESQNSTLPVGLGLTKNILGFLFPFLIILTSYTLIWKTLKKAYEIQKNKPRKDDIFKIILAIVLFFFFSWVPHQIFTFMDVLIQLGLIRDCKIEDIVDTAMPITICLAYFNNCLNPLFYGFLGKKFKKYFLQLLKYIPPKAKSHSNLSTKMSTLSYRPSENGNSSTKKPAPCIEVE
Experiment: Angiotensin II Receptor Binding: displacement of [^125 I](Sar^1,Ile^8)AngII from beef adrenal cortex membranes
Parameters: species or system beef (bovine)
Conditions: radioligand; non-specific binding with 1.0 uM unlabeled (Sar^1,Ile^8)AngII
Text: Beef adrenals are obtained from a local slaughter house (Maxwell-Cohen). [^125 I](Sar^1,Ile^8)AngII, S.A. 2200 Ci/mmole, is purchased from Dupont (NEN®, Boston, Mass.). All unlabeled AngII analogs, Dimethylsulfoxide (DMSO), nucleotides, bovine serum albumin (BSA) are purchased from Sigma Chemical Co., St. Louis, Mo. U.S.A.
Approximately sixteen (16) to twenty (20) beef adrenal glands are processed as follows: fresh adrenal glands received on crushed ice are cleaned of fatty tissues and the tough membranes encapsulating the glands are removed and discarded. The brownish tissue forming the adrenal cortex is scraped off and finely minced with scissors before homogenization. Care is taken to avoid contamination with medullary tissue during dissection. The scraped cortices are suspended in twenty volumes of an ice-cold buffer medium consisting of 10 mM Tris.HCl (pH 7.4 at 22° C.) and containing 1.0 mM EDTA and 0.2M sucrose. Unless otherwise indicated, all subsequent operations are done at 4° C. […] The homogenate is centrifuged first at low speed (3,000×g) for 10 min. […] This P2 pellet is discarded and the liquid phase is carefully decanted off in clean centrifuge tubes and recentrifuged at high speed (100,000×g) for 60 min. The translucent final pellet is harvested and combined in a small volume (20-50.0 ml) of 50.0 mM Tris.HCl buffer, pH 7.2. […] The pelleted membrane is reconstituted in 50.0 mM Tris.HCl buffer containing 0.1 mM of phenylmethylsulfonyl fluoride (PMSF) to give approximately a protein concentration of 2.5 mg per ml of tissue suspension. The membrane preparation is finally aliquoted in 1.0 ml volumes and stored at -70° C. until use in the binding assays. […]
The wells are left undisturbed for 60 min. at room temperature. […] The filters are removed from the filter grid and counted in a Parkard® Cobra Gamma Counter for 1 min. […] The binding data are analyzed by the non-linear interactive "LUNDON-1" program (LUNDON SOFTWARE Inc., Cleveland, Ohio U.S.A.).

“[^125 I](Sar^1,Ile^8)AngII [reference compound]” was tested. Which Specific binding did it give?
Its Specific binding is “greater than 90%”.
